The values that follow come from publication PMC7539012, “Hyperphosphorylated tau aggregation and cytotoxicity modulators screen identified prescription drugs linked to Alzheimer's disease and cognitive functions” (Scientific Reports, 2020).

Where a name gives a salt, the structure may show the parent alone. Read-outs that look alike come from different tables or passages of the source.

The assay relates to T1, 1N4R p-tau.
T1 construct: made in house; host or cells: E. coli (PIMAX system)
Kind of assay: p-tau aggregation modulator screen of 1280-compound library (ThS fluorescence net change over 16 h).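 Note: 30 µM compound with 6 µM p-tau over 16 h.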 Type of assay: biochemical.

Where [1] appears, read: p-tau aggregation modulator screen of the compound library, ThS fluorescence net change.
[2] abbreviates: 1280-compound library screen, ThS fluorescence net change over 16 h.
[3] abbreviates: library screen, ThS fluorescence net change over 16 h with p-tau.
[4] abbreviates: p-tau aggregation modulator screen of 1280-compound library, ThS fluorescence net change.
Setting [5] is: 1280-compound library screen, […].

For the molecule `COc1ccc(CN2CCN(C(c3ccc(F)cc3)c3ccc(F)cc3)CC2)c(OC)c1OC.Cl` [Lomerizine hydrochloride], the ThS net change under setting [1] is listed as 458. Under setting [2], `CCC(=O)O[C@]1(C(=O)CCl)[C@@H](C)C[C@H]2[C@@H]3CCC4=CC(=O)C=C[C@]4(C)[C@@]3(F)[C@@H](O)C[C@@]21C` [Clobetasol propionate] showed a ThS net change of 409. On the same count and under the same terms, the value for `CCCC(=O)Nc1ccc(OCC(O)CNC(C)C)c(C(C)=O)c1` (centres unmarked) [Acebutolol hydrochloride] was 381. For the molecule `CC1COc2c(N3CCN(C)CC3)c(F)cc3c(=O)c(C(=O)O)cn1c23` (centres unmarked) [Ofloxacin], the ThS net change under setting [3] stood at 311. Take `NC[C@@H]1O[C@H](O[C@H]2[C@@H](O)[C@H](O[C@@H]3[C@@H](O)[C@H](N)C[C@H](N)[C@H]3O[C@H]3O[C@H](CN)[C@@H](O)[C@H](O)[C@H]3N)O[C@@H]2CO)[C@H](N)[C@@H](O)[C@@H]1O.O=S(=O)(O)O` [Neomycin sulfate]: the ThS net change under setting [4] is listed as 340.

Under setting [4], `CC(=O)N(CC(O)CO)c1c(I)c(C(=O)NCC(O)CO)c(I)c(C(=O)NCC(O)CO)c1I` (centres unmarked) [Iohexol] gave a ThS net change of 345. Turning to `COc1ccnc(C[S+]([O-])c2nc3ccc(OC(F)F)cc3[nH]2)c1OC` (centres unmarked) [Pantoprazole sodium], the ThS net change under setting [1] turned out to be 443. Still for that read-out and setting: next, `N#Cc1ccc(C(c2ccc(C#N)cc2)n2cncn2)cc1` [Letrozole]: 453. `CCCCC(O)c1ccccc1` (centres unmarked) [Fenipentol] yielded a ThS net change under setting [4] of 375.

With `CC[C@@H](C(N)=O)N1CCCC1=O` [Levetiracetam], the ThS net change under setting [2] was 407. On the same count and under the same terms, the value for `CN1CCCCC1CCN1c2ccccc2Sc2ccc([S+](C)[O-])cc21` (centres unmarked) [Mesoridazine besylate] was 391; that for `C=C1C[C@H]2[C@@H]3C=C(C)C4=CC(=O)CC[C@]4(C)[C@H]3CC[C@]2(C)[C@@]1(OC(C)=O)C(C)=O` [Melengestrol acetate] was 404; that for `C=C(CC)C(=O)c1ccc(OCC(=O)O)c(Cl)c1Cl` [Ethacrynic acid] was 412. `CC(=O)OCC1=C(C(=O)O)N2C(=O)[C@@H](N)[C@H]2SC1` [Cephalosporanic acid, 7-amino] yielded a ThS net change under setting [5] of 378.

For `O=C(O)c1ccccc1C(=O)Nc1ccc(S(=O)(=O)Nc2nccs2)cc1` [Phthalylsulfathiazole], the ThS net change under setting [1] came to 425. `C=CC1=C(C(=O)O)N2C(=O)[C@@H](NC(=O)/C(=N\O)c3csc(N)n3)[C@H]2SC1` [Cefdinir] displayed a ThS net change under setting [1] of 454.

Under setting [1], `CC(=O)O[C@H]1C[C@@]2(C)[C@@H](C[C@@H](O)[C@H]3[C@@]4(C)CC[C@@H](O)[C@@H](C)[C@@H]4CC[C@@]32C)/C1=C(\CCC=C(C)C)C(=O)O` [Fusidic acid sodium salt] displayed a ThS net change of 438. `CC(C)(O/N=C(\C(=O)N[C@@H]1C(=O)N2C(C(=O)[O-])=C(C[n+]3ccccc3)CS[C@H]12)c1csc(N)n1)C(=O)O` [Ceftazidime pentahydrate] came in with a ThS net change under setting [4] of 358. Under setting [4], `Nc1nc2c(ncn2COCCO)c(=O)[nH]1` [Acyclovir] showed a ThS net change of 367.

`O=C1c2ccccc2S(=O)(=O)N1CCCCN1CCN(c2ncccn2)CC1` [Ipsapirone] returned a ThS net change under setting [4] of 374. The molecule `c1coc(CNc2ncnc3nc[nH]c23)c1` [6-Furfurylaminopurine] returned a ThS net change under setting [1] of 413. The same measure, in the same setting: next, Tyloxapol: 577. Take `C[C@]12C=CC(=O)C=C1CC[C@H]1[C@@H]3C[C@@H](O)[C@](O)(C(=O)CO)[C@@]3(C)C[C@H](O)[C@@]12F` [Triamcinolone]: the ThS net change under setting [3] is 259. `CN(C)CCC=C1c2ccccc2C=Cc2ccccc21` [Cyclobenzaprine hydrochloride] gave a ThS net change under setting [1] of 414. For the molecule `CC(C)(C)NCC(O)COc1cccc2c1CCC(=O)N2` (centres unmarked) [Carteolol hydrochloride], the ThS net change under setting [4] worked out at 377.

The molecule `CC(N)C(O)c1ccccc1` (centres unmarked) [Phenylpropanolamine hydrochloride] had a ThS net change of 395. As to `Nc1nc(O)c2ncn(COC(CO)CO)c2n1` [Ganciclovir], the ThS net change under setting [2] turned out to be 404.

Under setting [3], `CSc1ccc2c(c1)N(CCC1CCCCN1C)c1ccccc1S2` (centres unmarked) [Thioridazine hydrochloride] gave a ThS net change of 252. On to `CN[C@@H]1[C@H](O)[C@H](NC)[C@H]2O[C@@]3(O)C(=O)C[C@@H](C)O[C@H]3O[C@@H]2[C@H]1O.Cl.Cl` [Spectinomycin dihydrochloride], for which the ThS net change under setting [4] turned out to be 361. For the molecule `CC(C)(C)NCC(O)c1ccccc1Cl` (centres unmarked) [Tulobuterol], the ThS net change under setting [2] was found to be 398.

In turn, `C#C[C@]1(O)CC[C@H]2[C@@H]3CCC4=CC(=O)CC[C@@H]4[C@H]3CC[C@@]21CC` [Norgestrel-(-)-D] showed a ThS net change under setting [1] of 424.

Regarding `CC[C@H](C)C(=O)O[C@H]1C[C@H](O)C=C2C=C[C@H](C)[C@H](CC[C@@H](O)C[C@@H](O)CC(=O)O)[C@H]21` [Pravastatin], the ThS net change under setting [1] amounted to 467.

In turn, Merbromin came in with a ThS net change of 306. For the molecule `O=C(CCCCC(=O)Nc1c(I)cc(I)c(C(=O)O)c1I)Nc1c(I)cc(I)c(C(=O)O)c1I` [Iodipamide], under setting [1], the ThS net change turned out to be 421.

With `CN(C)CCN(Cc1ccc(Cl)cc1)c1ccccn1.Cl` [Chloropyramine hydrochloride], under setting [1], the ThS net change turned out to be 421. Molecule `CCn1cc(C(=O)O)c(=O)c2cc(F)c(N3CCN(C)CC3)cc21` [Pefloxacine] had a ThS net change under setting [4] of 352. Under setting [1], `CC(=O)Nc1nnc(S(N)(=O)=O)s1` [Acetazolamide] yielded a ThS net change of 429. In turn, `Nc1ccc(S(N)(=O)=O)cc1` [Sulfanilamide] came in with a ThS net change under setting [4] of 355. Same read-out and setting: next, `CN1CCN(C2=Nc3cc(Cl)ccc3Nc3ccccc32)CC1` [Clozapine]: 368. As for `CCN[C@@H](C)Cc1cccc(C(F)(F)F)c1` [Dexfenfluramine hydrochloride], the ThS net change under setting [5] stood at 397.

The molecule `C[C@@H](O)[C@H]1C(=O)N2C(C(=O)O)=C(S[C@@H]3CN[C@H](C(=O)N(C)C)C3)[C@H](C)[C@H]12` [Meropenem] registered a ThS net change under setting [1] of 490. Regarding `CC(=O)OCC(=O)[C@@]1(O)CC[C@H]2[C@@H]3CCC4=CC(=O)CC[C@]4(C)[C@H]3[C@@H](O)C[C@@]21C` [Cortisol acetate], under setting [4], the ThS net change came to 369.

`Cl.NC1CCN(c2nc3c(cc2F)c(=O)c(C(=O)O)cn3-c2ccc(F)cc2F)C1` (centres unmarked) [Tosufloxacin hydrochloride] displayed a ThS net change under setting [4] of 354. As for `COc1cc2nc(N(C)CCCNC(=O)C3CCCO3)nc(N)c2cc1OC` (centres unmarked) [Alfuzosin hydrochloride], under setting [2], the ThS net change is 391. The molecule `CCC(C)(C)C(=O)O[C@H]1C[C@@H](C)C=C2C=C[C@H](C)[C@H](CC[C@@H]3C[C@@H](O)CC(=O)O3)[C@H]21` [Simvastatin] yielded a ThS net change under setting [1] of 458. The same measure, in the same setting: the value for Olmesartan was 482.

As to `CCCNC(C)(C)COC(=O)c1ccccc1` [Meprylcaine hydrochloride], the ThS net change under setting [2] was determined as 405. On to `Cl.N[C@@H]1CCCCN(c2c(F)cc3c(=O)c(C(=O)O)cn(C4CC4)c3c2Cl)C1` [Besifloxacin hydrochloride], for which, under setting [4], the ThS net change was determined as 360.

`CC(C)c1cccc(C(C)C)c1O` [Propofol]: the ThS net change stood at 400.

In turn, `O=C(O)CCCC[C@@H]1SC[C@@H]2NC(=O)N[C@@H]21` [Biotin] returned a ThS net change under setting [5] of 380. In the case of `CCC(=O)OCC(=O)[C@@]1(OC(=O)CC)[C@@H](C)C[C@H]2[C@@H]3CCC4=CC(=O)C=C[C@]4(C)[C@@]3(Cl)[C@@H](O)C[C@@]21C` [Beclomethasone dipropionate], under setting [4], the ThS net change is 354. On the same count and under the same terms, next, `Cc1cc(C(C)(C)C)c(O)c(C)c1CC1=NCCN1` [Oxymetazoline hydrochloride]: 339.

As to `Cc1ccc(-c2cc(C(F)(F)F)nn2-c2ccc(S(N)(=O)=O)cc2)cc1` [Celecoxib], the ThS net change under setting [1] is recorded as 429. In the case of `COc1cc(NC(C)CCCN)c2ncccc2c1` (centres unmarked) [Primaquine diphosphate], the ThS net change turned out to be 250.

In turn, `Clc1ccc2c(c1)CCc1cccnc1C2=C1CCNCC1` [Desloratadine] gave a ThS net change of 457. With `CC(=O)Oc1cccc2c1C(=O)c1c(OC(C)=O)cc(C(=O)O)cc1C2=O` [Diacerein], the ThS net change under setting [3] was 239.

Under setting [1], `CCOC(=O)[C@H](CCc1ccccc1)N[C@@H](C)C(=O)N1[C@H](C(=O)O)C[C@@H]2CCC[C@@H]21` [Ramipril] came in with a ThS net change of 436. `Cn1c([N+](=O)[O-])cnc1COC(N)=O` [Ronidazole] yielded a ThS net change under setting [1] of 445. Under setting [4], `COC(=O)C1=C(C)NC(C)=C(C(=O)OC(C)C)C1c1cccc2nonc12` (centres unmarked) [Isradipine] gave a ThS net change of 372. The same measure, in the same setting: the value for `c1ccc(CC2=NCCN2)cc1` [Tolazoline hydrochloride] was 360. Turning to `CCCCNC(=O)NS(=O)(=O)c1ccc(C)cc1` [Tolbutamide], the ThS net change under setting [2] is recorded as 392. In the case of `COc1ccc(CN2CCNCC2)c(OC)c1OC` [Trimetazidine dihydrochloride], the ThS net change (p-tau aggregation modulator screen of 1280-compound library, […]) is 365.

Turning to `CCC1(c2cccc(O)c2)CCCCN(C)C1` (centres unmarked) [Meptazinol hydrochloride], the ThS net change is 462. As for `C[N+](C)(C)CCCCCCCCCC[N+](C)(C)C` [Decamethonium bromide], the ThS net change under setting [2] is listed as 390. Same read-out and setting: next, `O=C1c2ccccc2C(=O)C1c1ccccc1` [Phenindione]: 378. Consider `COc1ccc(CC2c3cc(OC)c(OC)cc3CC[N+]2(C)CCC(=O)OCCCCCOC(=O)CC[N+]2(C)CCc3cc(OC)c(OC)cc3C2Cc2ccc(OC)c(OC)c2)cc1OC` (centres unmarked) [Atracurium besylate], for which the ThS net change under setting [4] is on record as 370. Under setting [1], `O=C(CCNNC(=O)c1ccncc1)NCc1ccccc1` [Nialamide] came in with a ThS net change of 470. In turn, `CC(C)Cc1ccc([C@H](C)C(=O)O)cc1` [S-(+)-ibuprofen] yielded a ThS net change under setting [2] of 406.
